Each block holds one compound with its values, some of them ahead of it.
Tests used:
[1] = Visual Aqueous Solubility; format: physicochemical; conditions: thermodynamic from solid; 10 mg in 20 mL water
Description: Form 1 (10 mg) was weighed into a glass vial and water was added in […] up to 3 mL then 1 mL portions thereafter. Solubility was assessed visually following a brief period of equilibration.

[2] = Gravimetric Vapour Sorption (GVS) of Form 1; format: physicochemical
Description: Gravimetric Vapour Sorption (GVS) data were collected using the following method: Approximately 10 mg of sample was placed into a wire-mesh vapour sorption balance pan and loaded into an ‘IgaSorp’ vapour sorption balance (Hiden Analytical Instruments). The sample was then dried by maintaining a 0% humidity environment until no further weight change was recorded. Subsequently, the sample was then subjected to a ramping profile from 0-90% RH at 10% RH increments, maintaining the sample at each step until equilibration had been attained (99% step completion). Upon reaching equilibration, the % RH within the apparatus was ramped to the next step and the equilibration procedure repeated. After completion of the sorption cycle, the sample was then dried using the same procedure. The weight change during the sorption/desorption cycles were then monitored, allowing for the hygroscopic nature of the sample to be determined.

[3] = Stability study of Form 1 on storage; format: physicochemical; conditions: for Change in XRPD diffractogram on storage: after 1 month and 3 months
Description: A sample of Form 1 was packed in double polyethylene bags and sealed in a HDPE bottle and stored at conditions of 25° C./60% RH. The sample was reanalysed after 1 month and 3 months by XRPD (using Method B). No change in the XRPD diffractogram was observed when the sample was stored at 25° C./60% RH after either 1 month or 3 months.
Further tests on the sample of Form 1 stored at 25° C./60% RH were carried out as described in Table 1:
A second sample of Form 1 was packed in double polyethylene bags and sealed in a HDPE bottle and stored under accelerated stability conditions of 40° C./75% RH. The sample was reanalysed after 1 month and 3 months by XRPD (using Method B). No change in the XRPD diffractogram was observed when the sample was stored at 40° C./75% RH after either 1 month or 3 months.
Further tests on the sample of Form 1 stored at 40° C./75% RH were carried out as described in Table 2: […]

[4] = Slurry Studies; format: physicochemical; conditions: 90/10 IPA/water, ambient temperature, 72 hrs
Description: Form 1 (20 mg) was suspended in 90/10 IPA/water […] and shaken at ambient temperature for 72 hrs. The supernatant was evaporated rather than filtered due to the small volume and the resulting solid was examined by XRPD (FIG. 5).

[5] = Polymorph stability of Form 5; format: physicochemical; conditions: also on XRPD measurement
[6] = Gravimetric Vapour Sorption (GVS) of Form 5; format: physicochemical; conditions: 0% to 95% RH
Description: Form 5 is hygroscopic with a mass uptake of 23%, as determined by Gravimetric Vapour Sorption (GVS) studies. The GVS studies were performed using a Surface Measurement Systems Ltd. DVS-1 No Video, equipment #2126. The sample was loaded into a balance pan, typically 20-30 mg, and equilibrated at 0% RH. After the material was dried, the RH was increased with 10% per step for 1 hour per increment, ending at 95% RH. After completion of the sorption cycle, the sample was dried using the same method. The software used for data collection was DVSWin v3.01 No Video. Data analysis was performed using DVS Standard Analysis Suite v6.3.0 (Standard).

[7] = test system: intrinsic pathway of coagulation; conditions: in vitro; cited from earlier work
[8] = test system: blood; conditions: blood contacted with the inhibitor; cited from earlier work
[9] = test system: LPS-induced disseminated intravascular coagulation; conditions: cited from earlier work
[10] = test system: rats; conditions: systemic administration; cited from earlier work
[11] = target: T1, Human KLK1 (Homo sapiens, UniProt P06870); test: Determination of the IC50 for KLK1; format: biochemical; conditions: 25° C., substrate H-DVal-Leu-Arg-AFC
T1 construct: purchased Callbiochem
T1 sequence (P06870 25-262): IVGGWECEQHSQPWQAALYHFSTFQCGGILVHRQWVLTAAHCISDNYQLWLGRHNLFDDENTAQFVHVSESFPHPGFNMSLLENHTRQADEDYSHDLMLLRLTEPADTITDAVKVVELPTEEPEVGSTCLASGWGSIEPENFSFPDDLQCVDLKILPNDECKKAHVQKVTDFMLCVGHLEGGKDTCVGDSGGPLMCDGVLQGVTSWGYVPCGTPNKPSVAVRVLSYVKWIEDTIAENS
Description: (§1) KLK1 inhibitory activity in vitro was determined using standard published methods (see e.g. Johansen et al., Int. J. Tiss. Reac. 1986, 8, 185; Shori et al., Biochem. Pharmacol., 1992, 43, 1209; Stürzebecher et al., Biol. Chem. Hoppe-Seyler, 1992, 373, 1025). Human KLK1 (Callbiochem) was incubated at 25° C. with the fluorogenic substrate H-DVal-Leu-Arg-AFC and various concentrations of the test compound. Residual enzyme activity (initial rate of reaction) was determined by measuring the change in optical absorbance at 410 nm and the IC50 value for the test compound was determined.

[12] = Pharmacokinetic study, single oral dose in rats; format: in vivo; conditions: male, Sprague-Dawley, plasma; rat, po 10.1 mg/kg, vehicle TPGS solution (20% aq. w/v)
Description: A pharmacokinetic study of the compound of Formula A was performed to assess the pharmacokinetics following a single oral dose in male Sprague-Dawley rats. Two rats were given a single po dose of 5 mL/kg of a nominal 2 mg/mL (10 mg/kg) composition of test compound in vehicle. Following dosing, blood samples were collected over a period of […]. Sample times were 5, 15 and 30 minutes then 1, 2, 4, 6, 8 and 12 hrs. Following collection, blood samples were centrifuged and the plasma fraction analysed for concentration of test compound by LCMS.

[13] = target: T2, Human FXIa (Homo sapiens, UniProt P03951); test: Determination of the % Inhibition for FXIa; format: biochemical; conditions: 40 μM test compound, 25° C.
T2 construct: purchased Enzyme Research Laboratories
T2 sequence (P03951 388-625 limits assumed): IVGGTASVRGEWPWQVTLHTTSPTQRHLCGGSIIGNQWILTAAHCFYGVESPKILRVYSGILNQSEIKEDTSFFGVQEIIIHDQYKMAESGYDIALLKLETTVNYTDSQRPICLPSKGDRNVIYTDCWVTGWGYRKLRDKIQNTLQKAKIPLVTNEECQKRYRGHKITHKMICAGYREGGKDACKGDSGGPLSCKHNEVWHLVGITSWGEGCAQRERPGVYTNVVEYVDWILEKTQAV
T2 sequence (P03951 19-387 partner limits assumed): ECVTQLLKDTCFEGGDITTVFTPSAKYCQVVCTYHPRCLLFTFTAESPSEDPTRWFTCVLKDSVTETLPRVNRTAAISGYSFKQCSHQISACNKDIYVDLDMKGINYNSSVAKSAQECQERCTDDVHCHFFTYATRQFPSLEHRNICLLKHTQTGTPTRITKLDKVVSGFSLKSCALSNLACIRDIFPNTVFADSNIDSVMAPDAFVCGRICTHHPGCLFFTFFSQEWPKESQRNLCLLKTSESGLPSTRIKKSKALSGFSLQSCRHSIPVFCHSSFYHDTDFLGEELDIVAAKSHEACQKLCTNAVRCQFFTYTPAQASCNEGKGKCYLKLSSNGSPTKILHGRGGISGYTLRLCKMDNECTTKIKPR
Description: as §1, with “FXIa” for “KLK1”, “Sturzebecher” for “Stürzebecher”, “FXIa (Enzyme Research Laboratories)” for “KLK1 (Callbiochem)”, “Z-Gly-Pro-Arg-AFC” for “H-DVal-Leu-Arg-AFC”, “40 μM” for “various concentrations”, “nm.” for “nm and the IC50 value for the test compound was determined.”

solubility [1]: < 500 µg/mL
%-Wt(dry basis) ([2]; adsorption, 0.0335 %-RH): 0.04722%
%-Wt(dry basis) ([2]; adsorption, 9.9791 %-RH): 0.23%
%-Wt(dry basis) ([2]; adsorption, 20.0169 %-RH): 0.3541%
%-Wt(dry basis) ([2]; adsorption, 30.0091 %-RH): 0.7126%
%-Wt(dry basis) ([2]; adsorption, 39.9998 %-RH): 0.825%
%-Wt(dry basis) ([2]; adsorption, 49.991 %-RH): 1.207%
%-Wt(dry basis) ([2]; adsorption, 59.9808 %-RH): 1.699%
%-Wt(dry basis) ([2]; adsorption, 70.0195 %-RH): 1.912%
%-Wt(dry basis) ([2]; adsorption, 80.0136 %-RH): 2.186%
%-Wt(dry basis) ([2]; adsorption, 90.0039 %-RH): 3.226%
%-Wt(dry basis) ([2]; desorption, 0.0335 %-RH): 0.000368%
%-Wt(dry basis) ([2]; desorption, 4.9801 %-RH): 0.1269%
%-Wt(dry basis) ([2]; desorption, 15.0203 %-RH): 0.5017%
%-Wt(dry basis) ([2]; desorption, 25.0135 %-RH): 0.7008%
%-Wt(dry basis) ([2]; desorption, 35.0052 %-RH): 1.017%
%-Wt(dry basis) ([2]; desorption, 44.9954 %-RH): 1.525%
%-Wt(dry basis) ([2]; desorption, 54.9837 %-RH): 1.685%
%-Wt(dry basis) ([2]; desorption, 64.9759 %-RH): 1.865%
%-Wt(dry basis) ([2]; desorption, 75.0151 %-RH): 2.116%
%-Wt(dry basis) ([2]; desorption, 85.0063 %-RH): 2.547%
Hygroscopicity (GVS) ([2]; up to 70% relative humidity): absence of significant hygroscopicity
Appearance ([3]; 25° C./60% RH, 1 month): Off-white
Assay by HPLC (on an anhydrous and solvent free basis) ([3]; 25° C./60% RH, 1 month): 99.5 % w/w
DSC Tonset ([3]; 25° C./60% RH, 1 month): 151.1 °C
DSC Tpeak ([3]; 25° C./60% RH, 1 month): 152.4 °C
HPLC assay (on an as is basis) ([3]; 25° C./60% RH, 1 month): 99.4 % w/w
Purity by HPLC ([3]; 25° C./60% RH, 1 month): 99.62 area %
Solid form of compound A by XRPD ([3]; 25° C./60% RH, 1 month): Conforms
Total impurities ([3]; 25° C./60% RH, 1 month): 0.38 area %
Water by Karl Fischer analysis ([3]; 25° C./60% RH, 1 month): <0.1 % w/w
Appearance ([3]; 25° C./60% RH, 3 months): Off-white
Assay by HPLC (on an anhydrous and solvent free basis) ([3]; 25° C./60% RH, 3 months): 99.6 % w/w
DSC Tonset ([3]; 25° C./60% RH, 3 months): 150.8 °C
DSC Tpeak ([3]; 25° C./60% RH, 3 months): 152.2 °C
HPLC assay (on an as is basis) ([3]; 25° C./60% RH, 3 months): 99.5 % w/w
Purity by HPLC ([3]; 25° C./60% RH, 3 months): 99.70 area %
Solid form of compound A by XRPD ([3]; 25° C./60% RH, 3 months): Conforms
Total impurities ([3]; 25° C./60% RH, 3 months): 0.30 area %
Water by Karl Fischer analysis ([3]; 25° C./60% RH, 3 months): <0.1 % w/w
Appearance ([3]; 25° C./60% RH, Initial): Off-white
Assay by HPLC (on an anhydrous and solvent free basis) ([3]; 25° C./60% RH, Initial): 101.0 % w/w
DSC Tonset ([3]; 25° C./60% RH, Initial): 151.3 °C
DSC Tpeak ([3]; 25° C./60% RH, Initial): 152.9 °C
HPLC assay (on an as is basis) ([3]; 25° C./60% RH, Initial): 100.9 % w/w
Purity by HPLC ([3]; 25° C./60% RH, Initial): 99.70 area %
Solid form of compound A by XRPD ([3]; 25° C./60% RH, Initial): Conforms
Total impurities ([3]; 25° C./60% RH, Initial): 0.30 area %
Water by Karl Fischer analysis ([3]; 25° C./60% RH, Initial): <0.1 % w/w
Change in XRPD diffractogram on storage ([3]; 25° C./60% RH): no change
Appearance ([3]; 40° C./75% RH, 1 month): Off-white
Assay by HPLC (on an anhydrous and solvent free basis) ([3]; 40° C./75% RH, 1 month): 99.5 % w/w
DSC Tonset ([3]; 40° C./75% RH, 1 month): 151.1 °C
DSC Tpeak ([3]; 40° C./75% RH, 1 month): 152.3 °C
HPLC assay (on an as is basis) ([3]; 40° C./75% RH, 1 month): 99.4 % w/w
Purity by HPLC ([3]; 40° C./75% RH, 1 month): 99.57 area %
Solid form of compound A by XRPD ([3]; 40° C./75% RH, 1 month): Conforms to
Total impurities ([3]; 40° C./75% RH, 1 month): 0.43 area %
Water by Karl Fischer analysis ([3]; 40° C./75% RH, 1 month): <0.1 % w/w
Appearance ([3]; 40° C./75% RH, 3 months): Off-white
Assay by HPLC (on an anhydrous and solvent free basis) ([3]; 40° C./75% RH, 3 months): 100.0 % w/w
DSC Tonset ([3]; 40° C./75% RH, 3 months): 150.6 °C
DSC Tpeak ([3]; 40° C./75% RH, 3 months): 152.5 °C
HPLC assay (on an as is basis) ([3]; 40° C./75% RH, 3 months): 99.9 % w/w
Purity by HPLC ([3]; 40° C./75% RH, 3 months): 99.71 area %
Solid form of compound A by XRPD ([3]; 40° C./75% RH, 3 months): Conforms to
Total impurities ([3]; 40° C./75% RH, 3 months): 0.29 area %
Water by Karl Fischer analysis ([3]; 40° C./75% RH, 3 months): 0.1 % w/w
Appearance ([3]; 40° C./75% RH, Initial): Off-white
Assay by HPLC (on an anhydrous and solvent free basis) ([3]; 40° C./75% RH, Initial): 101.0 % w/w
DSC Tonset ([3]; 40° C./75% RH, Initial): 151.3 °C
DSC Tpeak ([3]; 40° C./75% RH, Initial): 152.9 °C
HPLC assay (on an as is basis) ([3]; 40° C./75% RH, Initial): 100.9 % w/w
Purity by HPLC ([3]; 40° C./75% RH, Initial): 99.70 area %
Solid form of compound A by XRPD ([3]; 40° C./75% RH, Initial): Conforms to
Total impurities ([3]; 40° C./75% RH, Initial): 0.30 area %
Water by Karl Fischer analysis ([3]; 40° C./75% RH, Initial): <0.1 % w/w
Change in XRPD diffractogram on storage ([3]; 40° C./75% RH): no change
XRPD after slurry compared with FIG. 1a [4]: tendency to form hydrate(s)
Compound: COCc1nn(Cc2ccc(Cn3ccccc3=O)cc2)cc1C(=O)NCc1nccc(OC)c1F [Form 1, N-[(3-Fluoro-4-methoxypyridin-2-yl)methyl]-3-(methoxymethyl)-1-({4-[(2-oxopyridin-1-yl)methyl]phenyl}methyl)pyrazole-4-carboxamide]

Polymorph conversion over time [5]: converts into polymorph Form 3
GVS (mass uptake %) [6]: 23%
Compound: COCc1nn(Cc2ccc(Cn3ccccc3=O)cc2)cc1C(=O)NCc1nccc(OC)c1F [Form 5, N-[(3-Fluoro-4-methoxypyridin-2-yl)methyl]-3-(methoxymethyl)-1-({4-[(2-oxopyridin-1-yl)methyl]phenyl}methyl)pyrazole-4-carboxamide]

Compound: Ecallantide
Contact activated induced coagulation [7]: delay
Activated clotting time (ACT) [8]: increase

Compound: Cl.NCC1CCC(C(=O)N[C@@H](Cc2ccccc2)C(=O)Nc2ccc(CC(=O)O)cc2)CC1 (some centres unmarked) [PKSI-527]
Decrease in platelet count and fibrinogen level and increase in FDP level [9]: significantly suppressed

Compound: N=C(N)c1ccc(CNC(=O)c2cnn(Cc3ccccc3)c2)cc1 [ASP-440]
Hematoma expansion [10]: reduced

IC50 [11]: > 40 µM
Cmax [12]: 1940 ng/mL
Tmax [12]: 1.17 h
inhibition at 40 µM [13]: 0%
Compound: COCc1nn(Cc2ccc(Cn3ccccc3=O)cc2)cc1C(=O)NCc1nccc(OC)c1F [compound of Formula A, N-[(3-fluoro-4-methoxypyridin-2-yl)methyl]-3-(methoxymethyl)-1-({4-[(2-oxopyridin-1-yl)methyl]phenyl}methyl)pyrazole-4-carboxamide]

— patent publication US11234939B2, “Dosage forms comprising a plasma kallikrein inhibitor” (KALVISTA PHARMACEUTICALS LIMITED, priority 2017, dated 2022)
